The test system of data set [1] is insulin-degrading enzyme (IDE). Also on record: method as in PMID 22355395. The conditions noted are these: towards insulin and β-amyloid, cited from earlier work.
A further data set concerns Caco-2 cells. Put plainly: Cell viability MTT assay. Type of data set: cell-based, human. The following applies: 1–30 μM, 24 h. As to the method:
Cells were treated with different concentrations of the compounds (1–30 μM) for 24 h and examined using the MTT assay.
The cellular cytotoxicity of compounds was investigated using a 3-(4,5-dimethylthiazol-2-yl)-2,5-diphenyl-tetrazolium bromide (MTT) assay as previously reported, with minor modifications. The CaCo-2 were exposed for 24 h to compounds at concentrations ranging from […]. Then, MTT reagent (0.5 mg/mL in DMEM) was added to each well. The plate was incubated for 3 h at 37 °C. The MTT solution was removed from the culture plate, and 100 μL of DMSO solvent was added to solubilize the water-insoluble formazan crystals formed in the cells. The absorbance was determined at 570 nm using a microplate reader (VANTAstar_BMG LABTECH GmbH, Ortenberg, Germany).

A short description of data set [2]: ABTS radical scavenging assay. The conditions noted are these: mean ± SD, three independent experiments. The procedure: This method is based on the capacity of an antioxidant to scavenge the free radical ABTS^+ [50].
Samples of each compound (5 μL) were added to 245 μL of ABTS solution. The reduction in the blue-green radical ABTS^+ by hydrogen-donating antioxidants was evaluated by measuring the absorbance at 734 nm (VANTAstar_BMG LABTECH GmbH, Ortenberg, Germany), after one minute of incubation. All the measurements were carried out at least three times.
(§1) For each assay, the decrease in absorbance was used to calculate the antioxidant activity, which was expressed as the ability of the antioxidants to scavenge 50% of radical (EC50).

For a further data set, the target named is α-glucosidase (Saccharomyces cerevisiae, UniProt P53341). Put plainly: biochemical. The conditions noted are these: for inhibition at 50 µM: 0.25 h; for α-Glucosidase % inib. at 50 μM: 15 min. The procedure:
The α-glucosidase assay was performed as previously described. The enzyme from Saccharomyces cerevisiae (0.125 U/mL) solution was dissolved in 0.1 M sodium phosphate buffer (pH 6.8). Twenty microliters of test samples at various concentrations (0.005–50 μM) were mixed with the enzyme solution in microplate wells and incubated for 15 min at 37 °C. Subsequently, 20 μL of […] p-nitrophenyl α-D-glucopyranoside (pNPG) solution in 0.1 M phosphate buffer was added. After incubation at 37 °C for 15 min, the reaction was terminated by adding 50 μL of 0.2 M sodium carbonate solution. α-Glucosidase activity was determined spectrophotometrically at 405 nm on a 96-well microplate reader Fluostar (BMG LABTECH GmbH, Offenburg, Germany) by measuring the amount of p-nitrophenol released. DMSO control was used whenever required and the final concentration of DMSO was maintained below 8% v/v, which was found not to affect the enzyme activity. The IC50 values were determined by the interpolation of dose–response curves (Figure S2, Supplementary Material).
(§2) The percentage of inhibition of enzyme activity, for both enzymes, was calculated as (%) by the following equation: A−B/A × 100, where A represents the difference in the absorbance of the control sample between an incubation time of 0 and 1.0 min, and B represents the test sample’s absorbance difference in the same time range.

A short description of data set [3]: DPPH radical scavenging assay. The conditions noted are these: mean ± SD, three independent experiments. As to the method: Radical scavenging activity of the better derivatives was estimated according to the previously reported method with slight modification using the stable DPPH radical.
A solution of 0.1 mM DPPH• radical was added to various concentrations of compounds. The reaction mixture was incubated in the dark for 15 min and, thereafter, the absorbance was recorded at 517 nm (VANTAstar_BMG LABTECH GmbH, Germany). The decrease in absorbance of DPPH•, after addition of test compounds compared to the control, was used to calculate the antioxidant activity.
as §1

In data set [4] the target is T1, α-amylase from porcine pancreas (Sus scrofa, UniProt P00690).
T1 construct: 40 μL of α-amylase from porcine pancreas (1 mg/mL) was used; from tissue; host or cells: porcine pancreas
T1 sequence (P00690 16-511): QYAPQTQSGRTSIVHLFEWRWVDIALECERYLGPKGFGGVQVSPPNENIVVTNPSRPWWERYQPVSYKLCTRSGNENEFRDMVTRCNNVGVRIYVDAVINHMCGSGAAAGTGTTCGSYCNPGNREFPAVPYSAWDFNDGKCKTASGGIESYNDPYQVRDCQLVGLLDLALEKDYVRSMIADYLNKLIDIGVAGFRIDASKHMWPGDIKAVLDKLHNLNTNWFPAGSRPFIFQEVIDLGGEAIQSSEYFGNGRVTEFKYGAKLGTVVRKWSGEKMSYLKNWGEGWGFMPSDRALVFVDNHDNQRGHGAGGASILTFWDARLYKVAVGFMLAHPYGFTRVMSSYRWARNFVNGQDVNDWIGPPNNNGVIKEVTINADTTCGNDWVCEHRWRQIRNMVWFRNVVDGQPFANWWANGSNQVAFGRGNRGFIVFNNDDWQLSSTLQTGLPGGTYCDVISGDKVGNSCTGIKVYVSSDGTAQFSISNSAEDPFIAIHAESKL
Description: α-amylase inhibition assay (CNPG3 substrate). Type of data set: biochemical. The following applies: 10 min, pH 7, mean ± SD, three independent assays, read-out: α-Amylase % inib. at 50 μM. The procedure:
The α-amylase assay was conducted as described in previous studies. A reaction mix containing 60 μL of […] sodium phosphate buffer at pH 7.0, 20 μL of 1 M NaCl and 40 μL of α-amylase from porcine pancreas (1 mg/mL) was used. The solution was incubated in the absence or presence of compounds at 37 °C for 10 min. After incubation, 80 μL of a 2.5 μM 2-chloro-4-nitrophenyl α-D-maltotrioside (CNPG3) solution was added as the substrate and 2-chloro-nitrophenol released by the enzymatic hydrolysis was monitored at 405 nm, using a microplate reader (Fluostar BMG LABTECH GmbH, Offenburg, Germany). The results of all the assays described above were expressed as a percentage of the blank control.
as §2

In another data set the test system is hPreP. On the set-up: method as in PMID 24602793. The conditions noted are these: cited from earlier work.
Another data set relates to V. cholerae. The following applies: cited from earlier work.
The test system of a further data set is B. cereus. On the set-up: method as in PMID 22047695. The following applies: cited from earlier work.
The next data set relates to S. dysenteriae. The following applies: cited from earlier work.
[5] abbreviates: mean ± SD, three independent assays, read-out: α-Glucosidase IC50.
Setting [6] is: pH 6.8, 50 μM, mean ± SD, three independent assays, read-out: α-Glucosidase % inib. at 50 μM.
The mark [7] stands for this setting: 50 μM, mean ± SD, three independent assays.

Entries after “also recorded” stand apart in the source; their conditions may differ. Like-named read-outs stand apart in the source and are kept apart here.

Chain of α-glucosidase (P53341 whole entry): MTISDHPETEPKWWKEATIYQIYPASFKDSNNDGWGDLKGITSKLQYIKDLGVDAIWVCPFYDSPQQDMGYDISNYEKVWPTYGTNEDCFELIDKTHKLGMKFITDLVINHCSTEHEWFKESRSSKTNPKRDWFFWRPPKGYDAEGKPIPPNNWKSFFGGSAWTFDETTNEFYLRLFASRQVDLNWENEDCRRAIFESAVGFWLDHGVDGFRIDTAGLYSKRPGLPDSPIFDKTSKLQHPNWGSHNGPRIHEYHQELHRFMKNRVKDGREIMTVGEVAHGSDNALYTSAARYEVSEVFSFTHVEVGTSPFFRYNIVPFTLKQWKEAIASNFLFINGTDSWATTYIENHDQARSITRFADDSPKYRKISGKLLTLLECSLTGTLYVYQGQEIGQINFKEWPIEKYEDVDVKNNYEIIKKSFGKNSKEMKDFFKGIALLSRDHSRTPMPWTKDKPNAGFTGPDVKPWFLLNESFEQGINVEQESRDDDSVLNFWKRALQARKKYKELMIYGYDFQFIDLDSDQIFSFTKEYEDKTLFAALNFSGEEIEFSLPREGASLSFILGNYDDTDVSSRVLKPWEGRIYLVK

Take `O=[N+]([O-])c1cc(Cn2c(-c3ccc(Cl)c([N+](=O)[O-])c3)nc3ccccc32)ccc1Cl` [3k, 1-(4-Chloro-3-nitrobenzyl)-2-(4-chloro-3-nitrophenyl)-1H-benzo[d]imidazole]: the “Effect on IDE activity” value in data set [1] is reported as “actively stimulate IDE activity”; in data set [1] (listed as IV), “improves the activity of insulin-degrading enzyme (IDE)”.

One may read the IC50 as the concentration needed to halve the response being measured. Take `Cc1cccc2c1nc(-c1ccc(Cl)c([N+](=O)[O-])c1)n2Cc1ccc(Cl)c([N+](=O)[O-])c1` [8k, 1-(4-Chloro-3-nitrobenzyl)-2-(4-chloro-3-nitrophenyl)-4-methyl-1H-benzo[d]imidazole]: in the data set with Caco-2 cells, the “Cytotoxicity / effect on Caco-2 cell viability” value (shortened to “Cytotoxicity / effect”) is on record as “none of these compounds affected Caco-2 cell viability; also recorded: no cytotoxic effects”. Moreover, the “ABTS EC50” value in data set [2] is “no detectable antioxidant activity”. Moreover, the IC50 against α-glucosidase is 7.1 µM. Moreover, at α-glucosidase (pH 6.8, read-out: α-Glucosidase % inib. at 50 μM), the inhibition at 50 µM came to 71.2%. For the same compound, the “DPPH EC50” value in data set [3] is given as “no detectable antioxidant activity”.

As a reminder, the EC50 is the concentration at which the effect is half-maximal. Low values mean a more potent agent, high ones a less potent agent. In the case of `Cc1cccc2c1nc(-c1cc(O)ccc1O)n2Cc1cc(O)ccc1O` [8r, 2-(1-(2,5-Dihydroxybenzyl)-4-methyl-1H-benzo[d]imidazol-2-yl)benzene-1,4-diol], the “Cytotoxicity / effect” value in the data set with Caco-2 cells was “none of these compounds affected Caco-2 cell viability; also recorded: no cytotoxic effects”. For the same compound, the EC50 was determined as 13 ± 0.2 µM in data set [2] and 11.4 ± 1.2 µM in data set [3]. Moreover, the IC50 at α-glucosidase (setting [5]) came to 13.8 ± 2.7 µM.

On to `Cc1cccc2c1nc(-c1cc(O)c(O)c(O)c1)n2Cc1cc(O)c(O)c(O)c1` [8s, 5-(4-Methyl-1-(3,4,5-trihydroxybenzyl)-1H-benzo[d]imidazol-2-yl)benzene-1,2,3-triol], for which, in the data set with Caco-2 cells, the “Cytotoxicity / effect” value is on record as “none of these compounds affected Caco-2 cell viability; also recorded: no cytotoxic effects”. In addition, the EC50 amounted to 4.6 ± 0.2 µM in data set [2] and 7.4 ± 0.2 µM in data set [3]. For the same compound, at α-glucosidase (setting [6]), the inhibition at 50 µM worked out at 97.5%. For the same compound, the IC50 on α-glucosidase (setting [5]) turned out to be 0.39 ± 0.04 µM.

Turning to `O=[N+]([O-])c1cc(Cn2c(-c3ccc(Cl)c([N+](=O)[O-])c3)nc3ccccc32)ccc1Cl` [C00031], the inhibition at 50 µM amounted to 9.2 ± 1.6% at α-glucosidase (setting [6]) and 10.2 ± 6.41% in [4].

Turning to `Cc1cccc2c1nc(-c1ccc(Cl)c([N+](=O)[O-])c1)n2Cc1ccc(Cl)c([N+](=O)[O-])c1` [C00032], the “α-Glucosidase % inib. at 50 μM” value at α-glucosidase (setting [7]) is 71.2 ± 11.4%. Further, the inhibition at 50 µM in data set [4] stood at 14 ± 0.15%.

In the case of `O=[N+]([O-])c1cc(Cn2c(-c3ccc(Cl)c([N+](=O)[O-])c3)nc3cc(Cl)ccc32)ccc1Cl` [C00033], the inhibition at 50 µM at α-glucosidase (setting [6]) worked out at 17.3 ± 0.4%; in data set [4], 15.8 ± 0.5%.

Consider `COc1ccccc1Cn1c(-c2ccccc2OC)nc2c(C)cccc21` [C00034], for which the inhibition at 50 µM turned out to be 35.3 ± 6.8% at α-glucosidase (setting [6]) and 3.2 ± 2.3% in data set [4].

As for `Cc1cccc2c1nc(-c1ccc(O)c([N+](=O)[O-])c1)n2Cc1ccc(O)c([N+](=O)[O-])c1` [C00035], the inhibition at 50 µM on α-glucosidase (setting [6]) came to 3.7 ± 1.4%; in data set [4] it was 4.3 ± 2.1%.

Turning to `Cc1cccc2c1nc(-c1ccc(Br)c(Br)c1)n2Cc1ccc(Br)c(Br)c1` [C00036], the values for the inhibition at 50 µM (at α-glucosidase (setting [6]); in [4]) were 38.2 ± 7.4% and 35.7 ± 3%, respectively.

Regarding `Cc1cccc2c1nc(-c1cc(O)ccc1O)n2Cc1cc(O)ccc1O` [C00037], the inhibition at 50 µM at α-glucosidase (setting [6]) is 94.2 ± 2.8%; in data set [4], 1.3 ± 0.3%.

On to `Cc1cccc2c1nc(-c1cc(O)c(O)c(O)c1)n2Cc1cc(O)c(O)c(O)c1` [C00038], for which the “α-Glucosidase % inib. at 50 μM” value at α-glucosidase (setting [7]) is on record as 97.5 ± 0.5%.

As for `Cc1cccc2c1nc(-c1ccc(Cl)c([N+](=O)[O-])c1)n2Cc1ccc(Cl)c([N+](=O)[O-])c1` [C00039], the IC50 at α-glucosidase (read-out: α-Glucosidase IC50, mean ± SD, three independent assays) came to 7.1 ± 2.1 µM.

Regarding `Cc1cccc2c1nc(-c1cc(O)c(O)c(O)c1)n2Cc1cc(O)c(O)c(O)c1` [C00041], the IC50 at α-glucosidase (setting [5]) was 0.39 ± 0.04 µM.

`O=[N+]([O-])c1ccc2c(c1)nc(-c1cc(Br)ccc1O)n2Cc1cc(Br)ccc1O` [III]: the hPreP agonism entry in the data set with hPreP is given as “potent hPreP agonist”.

`Oc1ccc(Br)cc1Cn1c(-c2cc(Br)ccc2O)nc2ccccc21` [II]: the Antibacterial activity entry in the data set with V. cholerae, in the data set on B. cereus and with S. dysenteriae was “particularly active” each time.

Turning to `c1ccc(Cn2c(-c3ccccc3)nc3ccccc32)cc1` [I], the Antibacterial activity result in the data set on V. cholerae, in the data set on B. cereus and in the data set with S. dysenteriae was “particularly active” in each case.

For the compound `Cc1c(C)c2c(c(C)c1O)CCC(C)(C(=O)O)O2` (stereo not drawn) [Trolox, reference compound], the EC50 in data set [2] amounted to 24.4 ± 0.2 µM; in data set [3] it was 25.3 ± 0.9 µM.

These data come from PMC12567066, “Sustainable Synthesis of 1,2-Disubstituted Benzimidazoles as Promising α-Glucosidase Inhibitors: In Vitro and In Silico Evaluation” (Pharmaceuticals, 2025).
